# Experimental data published in article PMC4365270 (Cancer Chemotherapy and Pharmacology, 2015).
# “Also recorded” adds a separate entry of the source. Read-outs that look alike come from different tables or passages of the source.
# Tests used:
# cIAP-1 [1] = tested on: cIAP-1; design: method as in PMID 21443232; conditions: cited from earlier work
# [2] = dogs; cited from earlier work
# [3] = design: method as in PMID 23813446; conditions: dogs; cited from earlier work
# [4] = tested on: various human cancer cell lines; design: method as in PMID 21264751, PMID 22669575; conditions: in vitro; cited from earlier work
# [5] = design: method as in PMID 23813446; conditions: non-human primates; cited from earlier work
# cIAP-1 [6] = molecular target: T1, cIAP-1 (Homo sapiens, UniProt Q13490); assay: cIAP1 IHC in skin and tumor biopsies; type: in vivo
# T1 construct: endogenous in cells; host or cells: peripheral blood mononuclear cells (PBMCs) of patients
# Procedure: Pharmacokinetic samples were taken from all patients on day 1 (predose, 0.5, 1, 2, 3, 4, 6, 8, 12, 18 h postdose) and on day 5 (predose, 0.5, 1, 2, 3, 4, 6, 8 h postdose) of the first cycle. In addition, for exploratory PD analysis of IAP inhibition and activation of apoptosis, optional skin and tumor biopsies were taken from consenting patients on days 1 (predose) and 5 and blood samples on day 1 (predose, 1, 3, 6, 8, 12 h postdose), day 2 (predose), and day 5 (3 h postdose).
# (§1) cIAP-1 levels were measured in tumor tissue and surrogate tissue as available. Peripheral blood mononuclear cells (PBMCs) were analyzed for DEBIO1143-induced cIAP-1 degradation. Plasma native cytokeratin-18 (M65) or caspase-3 generated cytokeratin-18 fragments (M30), interleukin 8 (IL8), chemokine ligand 2 (CCL2, MCP1), and tumor necrosis factor α (TNFα) were measured by ELISA as markers of epithelial cell death and inflammation on days 1 (predose, 1, 3, 6, and 12 h postdose), 2, and 5.
# For the detection of cIAP-1 in paraffin-embedded human tissue, a validated immunohistochemical (IHC) assay was used. DEBIO1143-induced cIAP-1 degradation was measured in PBMCs using Western blot. Plasma biomarkers were measured through commercial ELISAs. All laboratory analyses were performed by MPI Research, Inc. (PK) and Mosaic Laboratory, LLC (PD).
# xenograft tumors = conditions: cited from earlier work
# [7] = tested on: tumor necrosis factor α (TNFα); assay: Plasma TNFα ELISA; design: species or system human; conditions: in vivo
# Procedure: as §1, with “([…])” for “(M65)”, “5. […] For the detection of cIAP-1 in paraffin-embedded human tissue, a validated immunohistochemical (IHC) assay was used. DEBIO1143-induced cIAP-1 degradation was measured in PBMCs using Western blot. Plasma biomarkers were measured through commercial ELISAs. All laboratory analyses were performed by MPI Research, Inc. (PK) and Mosaic Laboratory, LLC (PD).” for “5.”
# [8] = Safety/tolerability: AE, ADR, DLT in patients with advanced cancer; type: in vivo
# Excerpt: This was a multicenter, uncontrolled, open-label, dose-escalation study on DEBIO1143 in patients with advanced cancer. It employed an accelerated titration design for dose escalation with 100 % dose increments in consecutively enrolled single patients until drug-related grade-2 toxicity was observed during the initial treatment cycle (until day 28 or day 21 as per protocol amendment). If this was the case, cohort size was expanded to three patients and dosing increment was reduced to 50 % of the last dose. Dose escalation was to be stopped at the MTD which was considered exceeded if at any dose level more than one patient experienced dose-limiting toxicity (DLT) during the first treatment cycle. DLT was defined as any of the following: (a) non-hematological toxicity of grade ≥3 (excluding nausea, vomiting, diarrhea unless not controlled by maximal antiemetic/diarrheal therapy for >24 h); (b) anemia or neutropenia of grade ≥3 or thrombocytopenia of grade 4 or any grade if associated with clinically significant bleeding; (c) any AE resulting in dose delay or reduction; (d) any toxicity considered dose-limiting by the investigator. If only one out of the three patients of a cohort experienced drug-related DLT, the cohort was expanded by another three patients to be treated at the same dose level. If none of these additional patients experienced DLT, the dose escalation by 50 %, rounded down to the nearest capsule strength combination, continued in the next cohort of three patients.
# The incidence of AE, ADR, and DLT was recorded at all scheduled visits (on days 1, 15, and 28 of each cycle and additionally on days 5, 8, and 22 of cycle 1) and graded according to the Common Terminology Criteria for Adverse Events, version 4.0 of the National Cancer Institute. Moreover, safety laboratory, 12-lead ECG, vital sign measurements, and physical examinations were performed.
# [9] = tested on: multiple mouse cancer models; conditions: cited from earlier work
# [10] = tested on: chemokine ligand 2 (CCL2, MCP1); assay: Plasma CCL2 ELISA; type: in vivo, human
# Procedure: as §1, with “([…])” for “(M65)”, “5. […] For the detection of cIAP-1 in paraffin-embedded human tissue, a validated immunohistochemical (IHC) assay was used. DEBIO1143-induced cIAP-1 degradation was measured in PBMCs using Western blot. Plasma biomarkers were measured through commercial ELISAs. All laboratory analyses were performed by MPI Research, Inc. (PK) and Mosaic Laboratory, LLC (PD).” for “5.”
# T1 sequence (Q13490 whole entry): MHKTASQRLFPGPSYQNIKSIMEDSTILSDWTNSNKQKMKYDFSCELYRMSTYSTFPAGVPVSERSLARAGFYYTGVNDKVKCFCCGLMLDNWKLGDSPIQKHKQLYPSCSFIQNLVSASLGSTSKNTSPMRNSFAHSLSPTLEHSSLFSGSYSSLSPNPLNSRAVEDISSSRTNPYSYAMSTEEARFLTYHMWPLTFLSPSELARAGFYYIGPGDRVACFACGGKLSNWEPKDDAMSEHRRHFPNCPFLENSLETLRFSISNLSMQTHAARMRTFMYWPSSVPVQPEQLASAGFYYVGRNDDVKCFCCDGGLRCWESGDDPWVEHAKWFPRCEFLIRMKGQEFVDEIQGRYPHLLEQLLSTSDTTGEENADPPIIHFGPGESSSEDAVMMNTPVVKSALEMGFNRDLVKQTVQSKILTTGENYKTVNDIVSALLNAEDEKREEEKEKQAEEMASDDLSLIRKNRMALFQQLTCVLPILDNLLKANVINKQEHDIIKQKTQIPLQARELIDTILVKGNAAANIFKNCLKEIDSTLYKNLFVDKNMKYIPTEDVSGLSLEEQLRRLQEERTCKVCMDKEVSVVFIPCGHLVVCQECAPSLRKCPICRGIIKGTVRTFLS
structure (smiles),measurement,setting,value
CN[C@@H](C)C(=O)N[C@H]1CN(C(=O)CC(C)C)CC[C@H]2CC[C@@H](C(=O)NC(c3ccccc3)c3ccccc3)N2C1=O [DEBIO1143],cIAP-1 degradation,cIAP-1 [1],rapidly induced degradation of cIAP-1
same,No observable adverse event level (NOAEL),[2],1 mg/kg
same,Oral bioavailability,[3],good
same,Cell growth,[4],inhibit cell growth
same,Oral bioavailability,[5],good
same,cIAP1 level in skin biopsies (IHC),cIAP-1 [6]; 12 patients,trend for a decrease
same,Immunoactivity of cIAP1 in tumor biopsy (IHC),"cIAP-1 [6]; melanoma patient, 120 mg/day, day 5, predose 150",130
same,Percentage of cIAP1-positive cells in tumor biopsies,"cIAP-1 [6]; melanoma patient, 400 mg/d",only negligible effect
same,Apoptosis,xenograft tumors,apoptosis in xenograft tumors
same,Patients with detectable TNFα showing some increase postdose,[7],four out of five
same,Deaths during the study,[8]; N=31,No patient died
same,Dose dependence of AEs,"[8]; human, in vivo",neither incidence nor severity increased with dose
same,Dose-limiting toxicity observed,"[8]; human, in vivo",grade 3 reversible ALT elevation
same,Grade 4–5 treatment-related AE,"[8]; human, in vivo",no grade 4–5 treatment-related AE
same,Number of AEs,"[8]; human, in vivo",242
same,Number of SAEs,"[8]; human, in vivo",13
same,Number of dose-limiting toxicities (DLT),"[8]; human, in vivo",one
same,SAEs related to study drug,"[8]; human, in vivo",none of which was considered related to study drug
same,"Safety laboratory, ECG, vital signs, body weight, ECOG performance status","[8]; human, in vivo",No clinically meaningful trends
same,Maximum tolerated dose (MTD),"[8]; oral, days 1–5 every 2 or 3 weeks, up to 900 mg",No MTD was found; also recorded: not reached
same,Effect on irradiation or chemotherapeutic agents,[9],enhance the antitumoral effects
same,Patients with increased plasma CCL2,[10]; 900 mg,five out of six
same,"Plasma CCL2, mean increase","[10]; 900 mg, six patients",45%
same,"Plasma CCL2 increase, range","[10]; 900 mg, six patients",−6 to 54%
same,"Plasma CCL2 increase, significance","[10]; 3 and 6 h postdose, p < 0.0001",significant
same,Patients with increased plasma CCL2,"[10]; all dose levels, 25 patients",14
